The record followed here is patent US12486251B2 (PHARMABLOCK SCIENCES (NANJING) , INC., priority 2020, dated 2025).

Molecules are shown by their SMILES. pIC50: −log10 of the molar value.

This experiment addresses CBP recombinant proteins (Homo sapiens (Human), UniProt Q92793). Description: Competitive HTRF assay for affinity to CBP recombinant protein. In kind it is binding. The note with it: His-tagged CBP 5 nM, biotin-labeled ligand 50 nM, 1% DMSO. As to the method:
The affinity of the compounds synthesized in the present patert to the CBP recombinant proteins was determined by competitive HTRF method. His-tagged cyclic adenosine monophosphate response element binding protein (CREB-binding protein, CBP) was expressed in Escherichia coli system and further purified. CBP biotinylated ligands were all self-made. The BL21 star (DE3) competert cells transfected with His-tagged CBP protein genes at N-terminal were cultured at 37° C. for 16 h until the OD value was between 0.6 and 0.8, induced by 0.5 mM of IPTG and cultured overnight. The supernatant of cell lysate was purified by a Ni-ion affinity column and a Superdex75 molecular sieve column sequentially. The purity of resulting CBP proteins was 95%. The fluorescent donor reagent MAb Anti 6HIS—Eu cryptate Gold (Cisbio #61HI2KLA), the receptor reagent Streptavidin-XL665 (#610SAXLA) and the detection buffer (#62SDBRDD) required for HTRF were obtained from CISBIO BIOASSAYS (Codolet, France). Tris(2-carboxyethyl)phosphine hydrochloride (TCEP), sodium chloride, adenosine triphosphate (ATP), Tween-20, dimethylsulfoxide (DMSO), bovine serum albumin (BSA) and HEPES buffer were obtained from SIGMA at the highest level commercially available.
The general procedure of the competitive HTRF assay for the affinity to CBP recombinant proteins is as follows: 0.05% Tween-20 and 1 mM of TCEP were added immediately before the assay, and the assay was performed in a buffer consisting of 0.1 mg/ml BSA, 50 mM of HEPES and 5 mM of NaCl of pH 7.5. 2.5 μL of compound solution in a determination buffer with 4% DMSO and 5 μL of CBP solution in a determination buffer were added to a white low-volume 384-well microtiter plate, incubated at room temperature for 20 min, and then incubated at room temperature for 40 min by adding 2.5 μL of biotin-labeled ligand solution to the determination buffer. The final concentrations of CBP, biotin-labeled ligand and DMSO were 5 nM, 50 nM and 1%, respectively. Then, 5 μL of MAb Anti 6HIS—Eu cryptate Gold and […] of Streptavidin-XL665 in detection buffers from the manufacturer were added to the mixture, and the mixture was incubated for another 60 min. The final concentration of Streptavidin-XL665 was 12.5 nM, and MAb Anti 6HIS—Eu cryptate Gold was diluted according to the final concentration provided by the supplier. The multimode reader Spark from TECAN (Mannedorf, Switzerland) was used to read the plate to detect the homogeneous time-resolved fluorescence intensity of two groups, in which the excitation wavelength was 320 nm and the emission wavelengths were 665 nm and 620 nm. The IC50 value of the inhibitor was obtained by fitting fluorescence intensity ratios at 665 nm/620 nm with respect to the inhibitor concentration in an S-shaped dose-response curve by using Prism 7 (La Jolla, 15 CA).

Chain of CBP recombinant proteins (Q92793 whole entry): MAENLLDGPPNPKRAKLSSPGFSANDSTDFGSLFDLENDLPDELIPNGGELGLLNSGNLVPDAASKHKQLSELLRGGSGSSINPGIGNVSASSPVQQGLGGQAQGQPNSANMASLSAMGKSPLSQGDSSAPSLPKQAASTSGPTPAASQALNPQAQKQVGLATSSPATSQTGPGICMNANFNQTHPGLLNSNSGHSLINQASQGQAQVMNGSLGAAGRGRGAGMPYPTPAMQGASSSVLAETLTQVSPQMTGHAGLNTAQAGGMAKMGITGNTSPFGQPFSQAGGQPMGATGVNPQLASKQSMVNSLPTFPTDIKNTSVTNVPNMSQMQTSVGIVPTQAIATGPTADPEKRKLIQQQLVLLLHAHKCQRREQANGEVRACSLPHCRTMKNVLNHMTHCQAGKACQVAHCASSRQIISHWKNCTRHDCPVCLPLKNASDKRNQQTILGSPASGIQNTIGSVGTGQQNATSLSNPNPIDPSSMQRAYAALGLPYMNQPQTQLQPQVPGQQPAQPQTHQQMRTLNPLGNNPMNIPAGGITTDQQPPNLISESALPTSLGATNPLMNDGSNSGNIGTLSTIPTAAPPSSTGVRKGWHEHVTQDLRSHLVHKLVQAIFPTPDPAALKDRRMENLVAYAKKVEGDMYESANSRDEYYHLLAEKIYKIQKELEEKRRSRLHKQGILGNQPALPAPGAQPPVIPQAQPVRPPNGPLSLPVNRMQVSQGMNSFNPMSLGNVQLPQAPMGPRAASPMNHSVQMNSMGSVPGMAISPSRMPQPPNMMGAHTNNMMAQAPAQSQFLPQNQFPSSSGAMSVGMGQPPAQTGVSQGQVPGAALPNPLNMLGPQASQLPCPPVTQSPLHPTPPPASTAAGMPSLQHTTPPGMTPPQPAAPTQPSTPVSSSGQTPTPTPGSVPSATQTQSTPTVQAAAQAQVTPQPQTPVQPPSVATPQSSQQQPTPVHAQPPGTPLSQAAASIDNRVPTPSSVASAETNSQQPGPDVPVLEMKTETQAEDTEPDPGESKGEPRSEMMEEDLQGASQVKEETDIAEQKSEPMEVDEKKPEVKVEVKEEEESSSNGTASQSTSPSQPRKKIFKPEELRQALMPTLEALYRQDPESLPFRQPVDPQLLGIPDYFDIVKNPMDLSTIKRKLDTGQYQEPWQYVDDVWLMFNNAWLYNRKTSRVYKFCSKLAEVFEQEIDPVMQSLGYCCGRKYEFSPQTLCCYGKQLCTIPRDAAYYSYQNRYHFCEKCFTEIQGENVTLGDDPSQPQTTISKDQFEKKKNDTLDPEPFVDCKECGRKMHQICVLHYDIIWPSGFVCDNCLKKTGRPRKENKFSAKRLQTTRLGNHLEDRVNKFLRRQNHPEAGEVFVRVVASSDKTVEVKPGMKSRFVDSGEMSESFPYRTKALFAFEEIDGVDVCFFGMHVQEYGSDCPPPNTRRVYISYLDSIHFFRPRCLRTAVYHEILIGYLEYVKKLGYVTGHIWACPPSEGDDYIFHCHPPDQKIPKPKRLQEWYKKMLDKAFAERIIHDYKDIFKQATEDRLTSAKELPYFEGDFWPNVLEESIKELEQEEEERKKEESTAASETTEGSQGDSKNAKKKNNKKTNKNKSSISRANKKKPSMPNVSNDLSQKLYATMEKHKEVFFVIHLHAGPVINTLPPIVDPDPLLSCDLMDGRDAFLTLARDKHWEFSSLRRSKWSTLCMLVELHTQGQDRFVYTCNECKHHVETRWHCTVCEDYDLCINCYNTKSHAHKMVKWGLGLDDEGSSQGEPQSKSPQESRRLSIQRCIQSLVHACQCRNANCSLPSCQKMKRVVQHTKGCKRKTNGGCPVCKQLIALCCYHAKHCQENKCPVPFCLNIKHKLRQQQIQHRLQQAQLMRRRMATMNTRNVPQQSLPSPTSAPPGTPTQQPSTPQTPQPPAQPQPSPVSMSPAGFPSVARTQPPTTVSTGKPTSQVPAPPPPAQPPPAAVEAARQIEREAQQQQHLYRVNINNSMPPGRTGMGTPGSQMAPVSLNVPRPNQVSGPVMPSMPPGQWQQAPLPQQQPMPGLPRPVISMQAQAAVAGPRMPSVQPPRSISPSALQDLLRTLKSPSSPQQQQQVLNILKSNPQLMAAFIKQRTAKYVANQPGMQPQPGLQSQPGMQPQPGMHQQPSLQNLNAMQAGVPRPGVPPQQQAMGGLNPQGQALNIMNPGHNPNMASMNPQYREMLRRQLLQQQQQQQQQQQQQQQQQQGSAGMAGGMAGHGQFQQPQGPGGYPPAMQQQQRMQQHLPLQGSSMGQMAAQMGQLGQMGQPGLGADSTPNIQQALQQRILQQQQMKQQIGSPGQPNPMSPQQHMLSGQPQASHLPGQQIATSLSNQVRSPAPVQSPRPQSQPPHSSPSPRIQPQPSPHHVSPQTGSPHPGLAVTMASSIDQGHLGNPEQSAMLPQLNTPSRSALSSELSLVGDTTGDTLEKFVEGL

With `CNC(=O)c1cc2cc(OC)cnc2c(N2CCCc3cc(C4CCN(C(C)=O)CC4)c(C(F)F)cc32)n1` [Example 51, 8-[6-(1-acetylpiperidin-4-yl)-7-difluoro-methyl-3,4-dihydro-2H-quinolin-1-yl]-3-methoxy-[1,7] naphthyridine-6-carboxylic acid methylamide], the pIC50 is 7.66. With `CNC(=O)c1cc2cc(F)cnc2c(N2CCCc3cc(C4CCN(C(C)=O)CC4)c(C(F)F)cc32)n1` [Example 52, 8-[6-(1-acetylpiperidin-4-yl)-7-difluoro-methyl-3,4-dihydro-2H-quinolin-1-yl]-3-fluoro-[1,7] naphthyridine-6-carboxylic acid methylamide] the figure was 7.57; with `CNC(=O)c1cc2cccnc2c(N2CCCc3cc(-c4cnn(C5CNC5)c4)c(C(F)F)cc32)n1` [Example 53, 8-[6-(1-azetidin-3-yl-1H-pyrazol-4-yl)-7-difluoromethyl-3,4-dihydro-2H-quinolin-1-yl]-[1,7]naphthyridine-6-carboxylic acid methylamide], 7.85. In the case of `CNC(=O)c1cc2cccnc2c(N2CCCc3cc(-c4cnn(C5CN(C)C5)c4)c(C(F)F)cc32)n1` [Example 54, 8-{7-difluoromethyl-6-[1-(1-methyl-azetidin-3-yl)-1H-pyrazol-4-yl]-3,4-dihydro-2H-quinolin-1-yl}-[1,7]naphthyridine-6-carboxylic acid methylamide], the pIC50 is 7.96. For `CNC(=O)c1cc2cccnc2c(N2CCCc3cc(-c4cnn(CC#N)c4)c(C(F)F)cc32)n1` [Example 55, 8-[6-(1-cyanomethyl-1H-pyrazol-4-yl)-7-difluoromethyl-3,4-dihydro-2H-quinolin-1-yl]-[1,7]naphthyridine-6-carboxylic acid methylamide], the pIC50 is 7.82. As to `CNC(=O)Cn1cc(-c2cc3c(cc2C(F)F)N(c2nc(C(=O)NC)cc4ccccc24)CCC3)cn1` [Example 56, 1-[7-difluoromethyl-6-(1-methylcarbamoylmethyl-1H-pyrazol-4-yl)-3,4-dihydro-2H-quinolin-1-yl]-isoquinoline-3-carboxylic acid methylamide], the pIC50 was 7.62. The figure for `CNC(=O)c1cc2ccccc2c(N2CCCc3cc(-c4cnn(C)c4)c(Cl)cc32)n1` [Example 57, 1-[7-chloro-6-(1-methyl-1H-pyrazol-4-yl)-3,4-dihydro-2H-quinolin-1-yl]-isoquinoline-3-carboxylic acid methylamide] is 7.44; for `CNC(=O)c1ccc2c(c1)CCCN2c1nc(C(=O)NC)cc2ccccc12` [Example 58, 1-(3-methylcarbamoylisoquinolin-1-yl)-1,2,3,4-tetrahydroquinoline-6-carboxylic acid methylamide] it is 7.00; for `CNC(=O)c1cc2ccccc2c(N2CCCc3cc(CO)ccc32)n1` [Example 59, 1-(6-hydroxymethyl-3,4-dihydro-2H-quinolin-1-yl)-isoquinoline-3-carboxylic acid methylamide] it is 6.40.

Regarding `CNC(=O)c1cc2ccccc2c(N2CCOc3cc(-c4cnn(C)c4)ccc32)n1` [Example 60, 1-[7-(1-methyl-1H-pyrazol-4-yl)-2,3-dihydro-benzo[1,4]oxazin-4-yl]-isoquinoline-3-carboxylic acid methylamide], the pIC50 is 7.24. Turning to `CNC(=O)c1cc2c(c(N3CCCc4cc(-c5cnn(C)c5)c(C(F)F)cc43)n1)CCC2` [Example 61, 1-[7-difluoromethyl-6-(1-methyl-1H-pyrazol-4-yl)-3,4-dihydro-2H-quinolin-1-yl]-6,7-dihydro-5H-[2]pyrazine-3-carboxylic acid methylamide], the pIC50 is 7.15. `CNC(=O)c1cc2c(c(N3CCCc4cc(-c5cnn(C)c5)c(C(F)F)cc43)n1)COC2` [Example 62, 4-(7-(difluoro-methyl)-6-(1-methyl-1H-pyrazol-4-yl)-3,4-dihydroquinolin-1(2H)-yl)-N-methyl-1,3-dihydrofuran [3,4-c]pyridine-6-carboxamide]: the pIC50 is 6.54. In the case of `CNC(=O)c1cc2ccoc2c(N2CCCc3cc(-c4cnn(C)c4)c(C(F)F)cc32)n1` [Example 63, 7-[7-difluoromethyl-6-(1-methyl-1H-pyrazol-4-yl)-3,4-dihydro-2H-quinolin-1-yl]-furan[2,3-c]pyridine-5-carboxylic acid methylamide], the pIC50 is 6.87. With `CNC(=O)c1cc2ncccc2c(N2CCCc3cc(-c4cnn(C)c4)c(C(F)F)cc32)n1` [Example 64, 5-[7-difluoromethyl-6-(1-methyl-1H-pyrazol-4-yl)-3,4-dihydro-2H-quinolin-1-yl]-[1,6]naphthyridine-7-carboxylic acid methylamide] the figure was 7.85. With `CNC(=O)c1cc2cccnc2c(N2CCOc3cc(-c4cnn(C)c4)c(C(F)F)cc32)n1` [Example 65, 8-[6-difluoromethyl-7-(1-methyl-1H-pyrazol-4-yl)-2,3-dihydro-benzo[1,4]oxazin-4-yl]-[1,7]naphthyridine-6-carboxylic acid methylamide] the figure was 7.92; with `CNC(=O)c1cc2cccnc2c(-c2ccc3c(c2)c(-c2cnn(C)c2)nn3C)n1` [Example 66, 8-[1-methyl-3-(1-methy 1-1H-pyrazol-4-yl)-1H-indazol-5-yl]-[1,7]naphthyridine-6-carboxylic acid methylamide], 7.31.
